Patent US20110130397A1, “PYRROLINONE COMPOUNDS AS INHIBITORS OF BACTERIAL PEPTIDYL TRNA HYDROLASE AND USES THEREOF” (priority 2006, published 2011)

Row | melting point [°C] | Compound
1 | 204 to 206 | CCc1ccc2nc(N3C(=O)C(O)=C(C(=O)c4ccc(C)o4)C3c3ccccc3)sc2c1 (stereo not shown) [Compound 130]
2 | 222 to 225 | CCc1ccc2nc(N3C(=O)C(O)=C(C(=O)c4ccc(C)o4)C3c3ccc(F)cc3)sc2c1 (stereo not shown) [Compound 131]
3 | 192 to 194 | CCc1ccc2nc(N3C(=O)C(O)=C(C(=O)c4ccc(C)o4)C3c3ccc(OC)cc3)sc2c1 (stereo not shown) [Compound 132]
4 | 236 to 238 | CCc1ccc2nc(N3C(=O)C(O)=C(C(=O)c4ccc(C)o4)C3c3ccc(Cl)cc3)sc2c1 (stereo not shown) [Compound 133]
5 | 197 to 201 | CCc1ccc2nc(N3C(=O)C(O)=C(C(=O)c4ccc(C)o4)C3c3ccc(Cl)c(Cl)c3)sc2c1 (stereo not shown) [Compound 134]
6 | 220 to 222 | CCc1ccc2nc(N3C(=O)C(O)=C(C(=O)c4ccc(C)o4)C3c3ccc(C(C)C)cc3)sc2c1 (stereo not shown) [Compound 135]
7 | 174 to 177 | CCc1ccc2nc(N3C(=O)C(O)=C(C(=O)c4ccc(C)o4)C3c3cccc(Cl)c3)sc2c1 (stereo not shown) [Compound 136]
8 | 138 to 140 | CCc1ccc2nc(N3C(=O)C(O)=C(C(=O)c4ccc(C)o4)C3c3ccc(C(F)(F)F)cc3)sc2c1 (stereo not shown) [Compound 137]
9 | > 300 | Cc1ccc(C(=O)C2=C(O)C(=O)N(c3nc4ccc(Cl)cc4s3)C2c2cccc([N+](=O)[O-])c2)o1 (stereo not shown) [Compound 139]
10 | 268 to 269 | COc1ccc2nc(N3C(=O)C(O)=C(C(=O)c4ccc(C)o4)C3c3ccccc3F)sc2c1 (stereo not shown) [Compound 151]
11 | 240 to 242 | COc1ccc2nc(N3C(=O)C(O)=C(C(=O)c4ccc(C)o4)C3c3ccco3)sc2c1 (stereo not shown) [Compound 153]
12 | 250 to 252 | COC(=O)c1cccc(C2C(C(=O)c3ccc(C)o3)=C(O)C(=O)N2c2nc3ccc(OC)cc3s2)c1 (stereo not shown) [Compound 154]
13 | 263 to 264 | COc1ccc2nc(N3C(=O)C(O)=C(C(=O)c4ccc(C)o4)C3c3cccc(O)c3)sc2c1 (stereo not shown) [Compound 155]
14 | 241 to 242 | COc1ccc2nc(N3C(=O)C(O)=C(C(=O)c4ccc(C)o4)C3c3ccc(OC)c(O)c3)sc2c1 (stereo not shown) [Compound 156]
15 | 240 to 241 | COc1ccc2nc(N3C(=O)C(O)=C(C(=O)c4ccc(C)o4)C3c3ccccn3)sc2c1 (stereo not shown) [Compound 157]
16 | 291 to 292 | COc1ccc2nc(N3C(=O)C(O)=C(C(=O)c4ccc(C)o4)C3c3cccnc3)sc2c1 (stereo not shown) [Compound 158]
17 | 247 to 248 | CCOc1ccc2nc(N3C(=O)C(O)=C(C(=O)c4ccc(C)o4)C3c3ccccc3)sc2c1 (stereo not shown) [Compound 182]

Row | melting point [°C] | Compound
18 | 251 to 252 | CCOc1ccc2nc(N3C(=O)C(O)=C(C(=O)c4ccc(C)o4)C3c3ccccc3F)sc2c1 (stereo not shown) [Compound 183]
19 | 256 to 257 | CCOc1ccc2nc(N3C(=O)C(O)=C(C(=O)c4ccc(C)o4)C3c3cccc([N+](=O)[O-])c3)sc2c1 (stereo not shown) [Compound 184]
20 | 214 to 215 | CCOc1ccc2nc(N3C(=O)C(O)=C(C(=O)c4ccc(C)o4)C3c3cccc(OCc4ccccc4)c3)sc2c1 (stereo not shown) [Compound 186]
21 | 191 to 192 | CCCCOc1ccc(C2C(C(=O)c3ccc(C)o3)=C(O)C(=O)N2c2nc3ccc(OCC)cc3s2)cc1 (stereo not shown) [Compound 187]
22 | 185 to 186 | CCOc1ccc2nc(N3C(=O)C(O)=C(C(=O)c4ccc(C)o4)C3C3CCOC3)sc2c1 (stereo not shown) [Compound 190]
23 | 226 to 227 | CCOc1ccc2nc(N3C(=O)C(O)=C(C(=O)c4ccc(C)o4)C3c3cccc(C#N)c3)sc2c1 (stereo not shown) [Compound 220]
24 | 259 to 260 | CCOc1ccc2nc(N3C(=O)C(O)=C(C(=O)c4ccc(C)o4)C3c3ccc(O)c(O)c3)sc2c1 (stereo not shown) [Compound 221]
25 | 248 to 249 | CCOc1ccc2nc(N3C(=O)C(O)=C(C(=O)c4ccc(C)o4)C3c3cccc(F)c3)sc2c1 (stereo not shown) [Compound 222]
26 | 254 to 255 | CCOc1ccc2nc(N3C(=O)C(O)=C(C(=O)c4ccc(C)o4)C3c3cccc(O)c3)sc2c1 (stereo not shown) [Compound 223]
27 | 248 to 249 | Cc1ccc(C(=O)C2=C(O)C(=O)N(c3nc4cccnc4s3)C2c2ccc3c(c2)OCO3)o1 (stereo not shown) [Compound 247]
28 | 227 to 228 | CCOc1ccc2nc(N3C(=O)C(O)=C(C(=O)c4ccc(C)o4)C3c3sc4ccccc4c3C)sc2c1 (stereo not shown) [Compound 250]
29 | 230 to 231 | CCOc1ccc2nc(N3C(=O)C(O)=C(C(=O)c4ccc(C)o4)C3c3ccc4c(c3)OCO4)sc2c1 (stereo not shown) [Compound 251]
30 | 260 to 261 | CCOc1ccc2nc(N3C(=O)C(O)=C(C(=O)c4ccc(C)o4)C3c3ccc4ccccc4n3)sc2c1 (stereo not shown) [Compound 252]
31 | 251 to 252 | CCOc1ccc2nc(N3C(=O)C(O)=C(C(=O)c4ccc(C)o4)C3c3ccc(O)c(C(=O)O)c3)sc2c1 (stereo not shown) [Compound 254]
32 | 228 to 229 | CCOc1ccc2nc(N3C(=O)C(O)=C(C(=O)c4ccc(C)o4)C3c3cccc(C(=O)OC)c3)sc2c1 (stereo not shown) [Compound 255]
33 | 187 to 188 | CCOc1ccc2nc(N3C(=O)C(O)=C(C(=O)c4ccc(C)o4)C3c3ccc(-c4cccc([N+](=O)[O-])c4)o3)sc2c1 (stereo not shown) [Compound 256]
34 | 235 to 236 | CCOc1ccc2nc(N3C(=O)C(O)=C(C(=O)c4ccc(C)o4)C3c3cccs3)sc2c1 (stereo not shown) [Compound 257]

Further lines, the compound ahead of its results:

Row | Compound | melting point [°C]
35 | CCc1ccc2nc(N3C(=O)C(O)=C(C(=O)c4ccc(C)o4)C3c3ccccc3F)sc2c1 (stereo not shown) [Compound 138] | 165 to 169
36 | Cc1ccc(C(=O)C2=C(O)C(=O)N(c3nc4ccc([N+](=O)[O-])cc4s3)C2c2ccccc2F)o1 (stereo not shown) [Compound 152] | 255 to 257
37 | CC(=O)c1sc(N2C(=O)C(O)=C(C(=O)c3ccc(C)o3)C2c2ccccc2F)nc1C (stereo not shown) [Compound 159] | 244 to 245
38 | Cc1ccc(C(=O)C2=C(O)C(=O)N(c3nc4cc(Cl)ccc4o3)C2c2ccccc2F)o1 (stereo not shown) [Compound 160] | 244 to 245
39 | Cc1ccc(C(=O)C2=C(O)C(=O)N(c3ncc(C)s3)C2c2ccccc2F)o1 (stereo not shown) [Compound 161] | 251 to 252
40 | Cc1ccc(C(=O)C2=C(O)C(=O)N(c3nc4c(O)ncnc4[nH]3)C2c2ccccc2F)o1 (stereo not shown) [Compound 162] | > 350
41 | Cc1ccc(C(=O)C2=C(O)C(=O)N(c3nc4ccccc4s3)C2c2ccccc2F)o1 (stereo not shown) [Compound 163] | 253 to 254
42 | Cc1ccc(C(=O)C2=C(O)C(=O)N(Cc3nn[nH]n3)C2)o1 [Compound 178] | 233 to 234
43 | Cc1ccc(C(=O)C2=C(O)C(=O)N(c3nc4ccc(S(C)(=O)=O)cc4s3)C2C2CCCCC2)o1 (stereo not shown) [Compound 179] | 208 to 209
44 | Cc1ccc(C(=O)C2=C(O)C(=O)N(c3nc4ccc(S(C)(=O)=O)cc4s3)C2C2CCOC2)o1 (stereo not shown) [Compound 180] | 199 to 200
45 | CCCCCC1C(C(=O)c2ccc(C)o2)=C(O)C(=O)N1c1nc2ccc(S(C)(=O)=O)cc2s1 (stereo not shown) [Compound 181] | 171 to 173
46 | CCOc1ccc2nc(N3C(=O)C(O)=C(C(=O)c4ccc(C)o4)C3C3CCCCC3)sc2c1 (stereo not shown) [Compound 185] | 166 to 167
47 | Cc1ccc(C(=O)C2=C(O)C(=O)N(c3ncccn3)C2c2ccccc2F)o1 (stereo not shown) [Compound 188] | 249 to 250
48 | Cc1ccc(C(=O)C2=C(O)C(=O)N(c3ccncn3)C2c2ccccc2F)o1 (stereo not shown) [Compound 189] | 235 to 236
49 | Cc1ccc(C(=O)C2=C(O)C(=O)N(c3ncnc4c3ncn4C3OC(CO)C(O)C3O)C2c2ccccc2F)o1 (stereo not shown) [Compound 217] | 106 to 109
50 | Cc1ccc(C(=O)C2=C(O)C(=O)N(c3ncnc4[nH]ncc34)C2c2ccccc2F)o1 (stereo not shown) [Compound 218] | 256 to 258
51 | Cc1ccc(C(=O)C2=C(O)C(=O)N(c3ncnc4[nH]cnc34)C2c2ccccc2F)o1 (stereo not shown) [Compound 219] | 170 to 173

Row | Compound | melting point [°C]
52 | Cc1ccc(C(=O)C2=C(O)C(=O)N(c3ncnc4[nH]cnc34)C2c2cccc([N+](=O)[O-])c2)o1 (stereo not shown) [Compound 224] | 266 to 267
53 | Cc1ccc(C(=O)C2=C(O)C(=O)N(c3ncnc4[nH]ncc34)C2c2cccc([N+](=O)[O-])c2)o1 (stereo not shown) [Compound 225] | 222 to 223
54 | Cc1ccc(C(=O)C2=C(O)C(=O)N(c3nc4cccnc4s3)C2c2ccccc2F)o1 (stereo not shown) [Compound 245] | 227 to 229
55 | Cc1ccc(C(=O)C2=C(O)C(=O)N(c3nc4cccnc4s3)C2c2cccc(C#N)c2)o1 (stereo not shown) [Compound 246] | 251 to 252
56 | Cc1ccc(C(=O)C2=C(O)C(=O)N(c3nc4cccnc4s3)C2c2ccc(O)c(C(=O)O)c2)o1 (stereo not shown) [Compound 248] | 243 to 245
57 | COC(=O)c1cccc(C2C(C(=O)c3ccc(C)o3)=C(O)C(=O)N2c2nc3cccnc3s2)c1 (stereo not shown) [Compound 249] | 220 to 221
58 | CCOc1ccc2nc(N3C(=O)C(OC(C)=O)=C(C(=O)c4ccc(C)o4)C3c3ccc(OCCOC(C)=O)cc3)sc2c1 (stereo not shown) [Compound 253] | 114 to 115
59 | Cc1ccc(C(=O)C2=C(O)C(=O)N(c3nc(N4CCOCC4)c4nc[nH]c4n3)C2c2ccccc2)o1 (stereo not shown) [Compound 283] | 291 to 292
60 | Cc1ccc(C(=O)C2=C(O)C(=O)N(c3nc(N4CCOCC4)c4nc[nH]c4n3)C2c2cccc([N+](=O)[O-])c2)o1 (stereo not shown) [Compound 284] | 280 to 282
61 | Cc1ccc(C(=O)C2=C(O)C(=O)N(c3nc(N4CCOCC4)c4nc[nH]c4n3)C2c2ccccc2F)o1 (stereo not shown) [Compound 285] | 297 to 299
62 | CC(=O)C1=C(O)C(=O)N(c2nc3ccc(Cl)cc3s2)C1c1ccc(F)cc1 (stereo not shown) [Compound 420] | 238 to 239
63 | CC(C)(C)C(=O)C1=C(O)C(=O)N(c2nc3ccc(Cl)cc3s2)C1c1ccc(F)cc1 (stereo not shown) [Compound 421] | 239 to 240
64 | CCOC(=O)C1=C(O)C(=O)N(c2nc3ccc(Cl)cc3s2)C1c1ccc(F)cc1 (stereo not shown) [Compound 422] | 236 to 237
65 | CC(=O)C1=C(O)C(=O)N(c2nc3ccc(F)cc3s2)C1c1ccc(F)cc1 (stereo not shown) [Compound 423] | 238 to 239
66 | CC(C)(C)C(=O)C1=C(O)C(=O)N(c2nc3ccc(F)cc3s2)C1c1ccc(F)cc1 (stereo not shown) [Compound 424] | 232 to 233
67 | CCOC(=O)C1=C(O)C(=O)N(c2nc3ccc(F)cc3s2)C1c1ccc(F)cc1 (stereo not shown) [Compound 425] | 218 to 219
